Data as given in article PMC4979471 (Cell Death Discovery, 2015).
Read-outs that look alike come from different tables or passages of the source.

How the values were obtained:
Assay in all cases: Kinase selectivity, P33-radiolabeled assay
Type in all cases: biochemical
Details in all cases: 10 μM ATP
ALK2/ACVR1 = target: T1, ALK2/ACVR1 (Homo sapiens, UniProt Q04771)
T1 construct: purchased Reaction Biology Corp
T1 sequence (Q04771 21-509): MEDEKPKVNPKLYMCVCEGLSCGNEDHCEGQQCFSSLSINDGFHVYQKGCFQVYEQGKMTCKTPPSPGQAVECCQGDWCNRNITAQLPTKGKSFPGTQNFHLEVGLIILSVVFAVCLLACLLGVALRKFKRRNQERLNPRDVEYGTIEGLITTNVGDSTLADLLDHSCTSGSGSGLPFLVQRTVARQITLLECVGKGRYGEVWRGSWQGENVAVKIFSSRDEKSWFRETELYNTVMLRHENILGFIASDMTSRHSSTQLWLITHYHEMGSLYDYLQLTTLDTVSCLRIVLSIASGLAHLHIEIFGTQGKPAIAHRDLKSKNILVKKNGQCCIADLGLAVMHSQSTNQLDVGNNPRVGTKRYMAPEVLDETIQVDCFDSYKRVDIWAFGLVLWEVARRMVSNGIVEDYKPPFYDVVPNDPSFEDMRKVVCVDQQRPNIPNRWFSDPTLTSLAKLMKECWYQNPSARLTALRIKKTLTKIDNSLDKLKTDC
Method in brief: (§1)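 Reactions contained 10 μM ATP and 10 μM test compound, each run in duplicate. Kinase activity is expressed as a percentage of DMSO-treated controls.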

BMX/ETK = target: T2, BMX/ETK (Homo sapiens, UniProt P51813)
T2 construct: purchased Reaction Biology Corp
T2 sequence (P51813 1-675): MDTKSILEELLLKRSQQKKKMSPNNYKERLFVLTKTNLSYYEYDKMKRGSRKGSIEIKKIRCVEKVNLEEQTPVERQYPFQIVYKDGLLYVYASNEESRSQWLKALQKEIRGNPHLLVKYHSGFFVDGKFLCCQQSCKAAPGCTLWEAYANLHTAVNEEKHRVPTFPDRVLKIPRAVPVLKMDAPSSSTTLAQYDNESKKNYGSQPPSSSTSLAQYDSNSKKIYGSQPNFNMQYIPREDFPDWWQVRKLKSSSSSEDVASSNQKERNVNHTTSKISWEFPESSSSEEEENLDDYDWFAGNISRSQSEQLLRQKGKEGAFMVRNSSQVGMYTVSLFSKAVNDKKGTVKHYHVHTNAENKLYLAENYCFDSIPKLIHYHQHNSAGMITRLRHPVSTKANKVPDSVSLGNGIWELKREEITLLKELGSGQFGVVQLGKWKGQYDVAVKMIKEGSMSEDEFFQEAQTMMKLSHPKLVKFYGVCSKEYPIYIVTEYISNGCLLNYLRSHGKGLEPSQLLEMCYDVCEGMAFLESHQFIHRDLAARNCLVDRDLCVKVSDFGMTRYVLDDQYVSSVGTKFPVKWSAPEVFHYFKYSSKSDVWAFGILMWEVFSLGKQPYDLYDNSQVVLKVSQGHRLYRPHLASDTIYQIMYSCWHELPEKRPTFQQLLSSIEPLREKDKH
Method in brief: as §1

CDK4/cyclin D3 = target: T3, CDK4/cyclin D3 (Homo sapiens, UniProt P11802)
T3 construct: purchased Reaction Biology Corp
Method in brief: as §1

DAPK1 = target: T4, DAPK1 (Homo sapiens, UniProt P53355)
T4 construct: purchased Reaction Biology Corp
Method in brief: as §1

LKB1 = target: T5, LKB1 (Homo sapiens, UniProt Q15831)
T5 construct: purchased Reaction Biology Corp
T5 sequence (Q15831 1-433): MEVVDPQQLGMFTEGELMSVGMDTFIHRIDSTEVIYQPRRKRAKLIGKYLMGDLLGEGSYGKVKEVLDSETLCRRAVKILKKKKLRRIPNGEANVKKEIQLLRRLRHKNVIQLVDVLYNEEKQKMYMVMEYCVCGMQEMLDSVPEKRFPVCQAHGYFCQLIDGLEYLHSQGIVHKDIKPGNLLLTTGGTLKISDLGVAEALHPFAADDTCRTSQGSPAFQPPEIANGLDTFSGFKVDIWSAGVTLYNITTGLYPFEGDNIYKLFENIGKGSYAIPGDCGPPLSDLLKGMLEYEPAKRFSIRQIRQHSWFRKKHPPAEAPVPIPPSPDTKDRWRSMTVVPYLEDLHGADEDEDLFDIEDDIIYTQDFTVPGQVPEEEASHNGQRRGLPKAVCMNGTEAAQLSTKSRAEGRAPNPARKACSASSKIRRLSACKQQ
T5 sequence (Q7RTN6 1-431 partner): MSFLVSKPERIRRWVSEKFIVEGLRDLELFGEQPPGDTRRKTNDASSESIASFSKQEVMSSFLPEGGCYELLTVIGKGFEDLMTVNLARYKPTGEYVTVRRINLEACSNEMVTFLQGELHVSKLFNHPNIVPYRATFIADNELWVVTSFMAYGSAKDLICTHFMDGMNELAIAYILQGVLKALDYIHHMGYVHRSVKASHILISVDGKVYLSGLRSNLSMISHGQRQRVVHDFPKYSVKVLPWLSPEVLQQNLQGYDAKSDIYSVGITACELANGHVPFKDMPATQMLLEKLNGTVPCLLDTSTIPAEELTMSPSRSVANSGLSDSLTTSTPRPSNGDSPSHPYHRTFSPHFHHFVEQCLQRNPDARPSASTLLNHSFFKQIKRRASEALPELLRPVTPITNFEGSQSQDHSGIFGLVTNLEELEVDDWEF
T5 sequence (Q9Y376 1-341 partner): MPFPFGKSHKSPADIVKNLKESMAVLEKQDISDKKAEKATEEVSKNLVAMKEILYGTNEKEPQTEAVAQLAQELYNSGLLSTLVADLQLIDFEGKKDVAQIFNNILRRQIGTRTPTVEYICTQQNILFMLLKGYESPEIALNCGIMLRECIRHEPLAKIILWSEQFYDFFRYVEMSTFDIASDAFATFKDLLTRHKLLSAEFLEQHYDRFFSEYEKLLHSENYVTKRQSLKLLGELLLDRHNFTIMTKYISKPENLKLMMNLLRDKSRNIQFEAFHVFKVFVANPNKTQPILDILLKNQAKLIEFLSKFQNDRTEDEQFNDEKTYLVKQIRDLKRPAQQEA
Method in brief: as §1

PAK4 = target: T6, PAK4 (Homo sapiens, UniProt O96013)
T6 construct: purchased Reaction Biology Corp
Method in brief: as §1

PKAcb = target: T7, PKAcb (Homo sapiens, UniProt P22694)
T7 construct: purchased Reaction Biology Corp
Method in brief: as §1

[1] = read-out: % Enzyme Activity (relative to DMSO controls) AVG
[2] = read-out: % Enzyme Activity (relative to DMSO controls) Data 1
[3] = read-out: % Enzyme Activity (relative to DMSO controls) Data 2

T4 sequence (P53355 whole entry): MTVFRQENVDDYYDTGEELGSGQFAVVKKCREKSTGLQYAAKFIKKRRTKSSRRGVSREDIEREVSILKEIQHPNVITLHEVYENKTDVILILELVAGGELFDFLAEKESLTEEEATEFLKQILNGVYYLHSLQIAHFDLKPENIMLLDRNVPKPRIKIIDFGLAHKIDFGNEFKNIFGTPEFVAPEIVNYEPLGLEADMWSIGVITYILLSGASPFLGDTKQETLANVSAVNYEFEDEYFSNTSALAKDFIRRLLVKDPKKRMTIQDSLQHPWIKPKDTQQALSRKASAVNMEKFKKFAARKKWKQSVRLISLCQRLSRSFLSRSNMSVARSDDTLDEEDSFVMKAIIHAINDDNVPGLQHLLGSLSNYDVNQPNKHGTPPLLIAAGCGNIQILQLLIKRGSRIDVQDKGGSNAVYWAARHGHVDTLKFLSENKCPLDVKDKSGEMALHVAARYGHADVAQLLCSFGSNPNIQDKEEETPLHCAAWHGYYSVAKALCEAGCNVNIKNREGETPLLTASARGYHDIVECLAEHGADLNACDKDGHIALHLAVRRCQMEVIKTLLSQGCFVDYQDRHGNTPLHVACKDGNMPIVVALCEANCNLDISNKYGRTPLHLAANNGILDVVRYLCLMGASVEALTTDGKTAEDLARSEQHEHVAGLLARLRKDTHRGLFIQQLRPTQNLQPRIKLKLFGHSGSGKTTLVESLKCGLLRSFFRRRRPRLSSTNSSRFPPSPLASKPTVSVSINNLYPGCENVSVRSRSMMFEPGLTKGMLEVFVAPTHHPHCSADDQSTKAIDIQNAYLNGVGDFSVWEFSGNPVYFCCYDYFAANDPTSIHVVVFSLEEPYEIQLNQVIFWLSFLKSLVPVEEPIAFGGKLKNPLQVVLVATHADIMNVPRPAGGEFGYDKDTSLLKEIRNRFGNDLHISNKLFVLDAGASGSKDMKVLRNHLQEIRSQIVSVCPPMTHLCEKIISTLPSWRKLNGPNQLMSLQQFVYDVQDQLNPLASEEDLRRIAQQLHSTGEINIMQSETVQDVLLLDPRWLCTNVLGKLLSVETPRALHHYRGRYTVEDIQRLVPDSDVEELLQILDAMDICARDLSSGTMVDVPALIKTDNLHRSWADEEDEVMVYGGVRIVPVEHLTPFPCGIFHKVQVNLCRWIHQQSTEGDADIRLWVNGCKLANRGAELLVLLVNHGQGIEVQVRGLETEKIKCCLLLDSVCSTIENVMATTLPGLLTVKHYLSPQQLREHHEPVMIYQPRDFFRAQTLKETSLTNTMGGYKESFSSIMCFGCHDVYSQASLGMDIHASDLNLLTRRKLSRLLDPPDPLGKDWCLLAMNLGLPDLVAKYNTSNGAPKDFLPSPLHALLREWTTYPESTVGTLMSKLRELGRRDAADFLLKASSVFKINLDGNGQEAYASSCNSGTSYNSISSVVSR
T3 sequence (P11802 whole entry): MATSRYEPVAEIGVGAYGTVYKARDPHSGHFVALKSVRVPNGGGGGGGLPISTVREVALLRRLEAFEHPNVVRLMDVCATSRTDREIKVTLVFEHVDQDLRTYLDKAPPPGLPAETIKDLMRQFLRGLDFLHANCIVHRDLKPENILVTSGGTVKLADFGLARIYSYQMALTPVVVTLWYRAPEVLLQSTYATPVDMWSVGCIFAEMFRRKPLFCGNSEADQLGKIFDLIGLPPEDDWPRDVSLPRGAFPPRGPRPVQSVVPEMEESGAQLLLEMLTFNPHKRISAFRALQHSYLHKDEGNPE
T3 sequence (P30281 whole entry partner): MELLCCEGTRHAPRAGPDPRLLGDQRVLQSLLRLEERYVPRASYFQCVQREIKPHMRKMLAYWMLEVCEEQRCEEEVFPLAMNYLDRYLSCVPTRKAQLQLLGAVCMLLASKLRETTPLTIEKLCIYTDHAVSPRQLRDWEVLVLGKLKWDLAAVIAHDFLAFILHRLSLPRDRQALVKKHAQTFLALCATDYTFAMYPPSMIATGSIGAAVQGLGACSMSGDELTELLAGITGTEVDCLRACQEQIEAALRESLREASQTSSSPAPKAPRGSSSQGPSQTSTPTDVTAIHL
T6 sequence (O96013 whole entry): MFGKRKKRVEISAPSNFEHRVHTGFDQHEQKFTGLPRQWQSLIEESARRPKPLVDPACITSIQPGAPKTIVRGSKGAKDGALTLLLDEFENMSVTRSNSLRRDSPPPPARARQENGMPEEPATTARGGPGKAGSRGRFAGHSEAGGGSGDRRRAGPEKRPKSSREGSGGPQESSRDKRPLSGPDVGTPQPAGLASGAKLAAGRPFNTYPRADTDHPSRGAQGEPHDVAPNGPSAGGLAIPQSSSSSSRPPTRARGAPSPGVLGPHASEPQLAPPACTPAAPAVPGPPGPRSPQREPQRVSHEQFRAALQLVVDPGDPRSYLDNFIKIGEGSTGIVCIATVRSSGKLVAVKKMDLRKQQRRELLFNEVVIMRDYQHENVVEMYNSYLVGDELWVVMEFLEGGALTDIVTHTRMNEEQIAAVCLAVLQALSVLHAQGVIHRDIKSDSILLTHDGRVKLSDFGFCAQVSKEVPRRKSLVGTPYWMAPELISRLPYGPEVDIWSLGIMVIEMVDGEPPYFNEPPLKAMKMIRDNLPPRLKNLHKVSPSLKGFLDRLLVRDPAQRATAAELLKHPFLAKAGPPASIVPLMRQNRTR

## CC(C)(C)C(=O)N1N=CC[C@H]1c1ccccc1 [GSK′963]
ALK2/ACVR1; [1]
  remaining activity at 10 µM: 98.1%
ALK2/ACVR1; [2]
  remaining activity at 10 µM: 94%
ALK2/ACVR1; [3]
  remaining activity at 10 µM: 102%
BMX/ETK; [1]
  remaining activity at 10 µM: 99.9%
BMX/ETK; [2]
  remaining activity at 10 µM: 94.5%
BMX/ETK; [3]
  remaining activity at 10 µM: 105%
CDK4/cyclin D3; [1]
  remaining activity at 10 µM: 96.2%
CDK4/cyclin D3; [2]
  remaining activity at 10 µM: 98.3%
CDK4/cyclin D3; [3]
  remaining activity at 10 µM: 94.1%
DAPK1; [1]
  remaining activity at 10 µM: 70.8%
DAPK1; [2]
  remaining activity at 10 µM: 72.5%
DAPK1; [3]
  remaining activity at 10 µM: 69.2%
LKB1; [1]
  remaining activity at 10 µM: 105%
LKB1; [2]
  remaining activity at 10 µM: 105%
LKB1; [3]
  remaining activity at 10 µM: 106%
PAK4; [1]
  remaining activity at 10 µM: 93%
PAK4; [2]
  remaining activity at 10 µM: 95.4%
PAK4; [3]
  remaining activity at 10 µM: 90.5%
PKAcb; [1]
  remaining activity at 10 µM: 111%
PKAcb; [2]
  remaining activity at 10 µM: 110%
PKAcb; [3]
  remaining activity at 10 µM: 113%
